Like-named read-outs stand apart in the source and are kept apart here.
Experiments:
[1] = biological target: T1, AChE (E.C. 3.1.1.7, type V-S) (Electrophorus electricus, UniProt O42275); assay: biochemical; settings: Ellman's method, electric eel AChE, mean ± SD
T1 construct: purchased Sigma-Aldrich type V-S (catalogue number not given); host or cells: electric eel (natural source)
Experimental: (§1) The inhibitory activity of the designed compounds against BuChE and AChE was evaluated using Ellman's method. […] AChE (E.C. 3.1.1.7, type V-S, lyophilized powder, from the electric eel, 1000 units) and BuChE (E.C. 3.1.1.8, from equine serum), acetylthiocholine iodide (ATCI), butyrylthiocholine iodide (BTCI), and 5,5-dithiobis-(2-nitrobenzoic acid) (DTNB) were all acquired from Sigma-Aldrich. Potassium dihydrogen phosphate, dipotassium hydrogen phosphate, potassium hydroxide, and sodium hydrogen carbonate were obtained from Fluka. […] In this regard, each one of the wells included a 50 µL potassium phosphate buffer, 25 µL sample dissolved in 50 % methanol and 50 % DMSO, and 25 µL enzyme (the final concentration 0.22 U/mL in buffer). Thereafter, the wells were pre-incubated for 15 min at room temperature, and 125 µL DTNB (3 mM in buffer) was added to each plate. […] As well, the IC50 values were expressed as mean ± SD. The percentage of enzyme's inhibition was calculated by comparing with a blank sample (100 % activity). The described method was also used for the BuChE inhibition assay.

BuChE (E.C. 3.1.1.8) = biological target: T2, BuChE (E.C. 3.1.1.8) (Equus caballus, UniProt P81908); assay: biochemical; settings: for IC50: Ellman's method, equine serum BuChE, mean ± SD; for SI (selectivity towards BuChE): SI ratio, values match IC50 AChE / IC50 BuChE
T2 construct: purchased Sigma-Aldrich; host or cells: equine serum (natural source)
T2 sequence (P81908 whole entry): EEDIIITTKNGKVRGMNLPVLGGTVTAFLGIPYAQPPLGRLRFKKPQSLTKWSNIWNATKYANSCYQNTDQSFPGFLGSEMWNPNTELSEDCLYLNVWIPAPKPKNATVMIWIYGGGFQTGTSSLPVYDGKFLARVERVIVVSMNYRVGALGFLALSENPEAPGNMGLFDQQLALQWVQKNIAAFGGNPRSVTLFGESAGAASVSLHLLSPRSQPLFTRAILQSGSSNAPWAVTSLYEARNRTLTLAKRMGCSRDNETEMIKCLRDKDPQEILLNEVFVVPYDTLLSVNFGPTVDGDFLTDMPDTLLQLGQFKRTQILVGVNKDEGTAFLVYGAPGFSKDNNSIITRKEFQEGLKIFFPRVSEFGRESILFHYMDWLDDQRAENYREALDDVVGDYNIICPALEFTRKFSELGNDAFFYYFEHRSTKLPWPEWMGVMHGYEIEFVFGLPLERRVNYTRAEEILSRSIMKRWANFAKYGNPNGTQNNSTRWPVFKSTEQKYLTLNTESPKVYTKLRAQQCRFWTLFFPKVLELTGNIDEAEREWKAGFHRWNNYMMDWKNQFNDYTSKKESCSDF
Experimental: as §1

AChE = system: AChE; design: method as in earlier work; settings: Figure 2, known inhibitors, ref Wajid et al., 2019, Wu et al., de Andrade et al., Joubert and Kapp, 2020; cited from earlier work
BuChE = settings: ref Wajid et al., 2019, Wu et al., cited from earlier work
[2] = Figure 2, known inhibitors, de Andrade et al., Joubert and Kapp, 2020

T1 sequence (O42275 24-633): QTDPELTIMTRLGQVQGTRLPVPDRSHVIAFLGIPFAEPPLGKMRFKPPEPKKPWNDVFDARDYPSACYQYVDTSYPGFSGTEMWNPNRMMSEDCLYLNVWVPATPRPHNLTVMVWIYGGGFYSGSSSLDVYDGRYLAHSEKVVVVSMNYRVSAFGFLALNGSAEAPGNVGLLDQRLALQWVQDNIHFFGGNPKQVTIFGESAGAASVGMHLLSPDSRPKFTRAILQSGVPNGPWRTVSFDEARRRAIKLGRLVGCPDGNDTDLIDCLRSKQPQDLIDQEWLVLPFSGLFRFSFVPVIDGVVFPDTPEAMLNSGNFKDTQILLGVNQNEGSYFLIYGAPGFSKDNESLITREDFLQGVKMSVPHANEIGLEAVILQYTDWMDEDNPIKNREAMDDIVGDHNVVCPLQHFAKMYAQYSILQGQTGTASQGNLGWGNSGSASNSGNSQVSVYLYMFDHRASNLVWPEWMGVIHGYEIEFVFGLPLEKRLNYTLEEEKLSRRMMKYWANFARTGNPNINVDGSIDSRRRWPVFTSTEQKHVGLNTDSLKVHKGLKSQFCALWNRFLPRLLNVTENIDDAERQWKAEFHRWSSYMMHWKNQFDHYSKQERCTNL

In the case of `Cc1ccc(-c2noc(C3CCN(Cc4ccccc4Cl)CC3)n2)cc1` [6n, 5-(1-(2-chlorobenzyl)piperidin-4-yl)-3-(p-tolyl)-1,2,4-oxadiazole], the IC50 [1] is reported as > 100 µM, the IC50 (BuChE (E.C. 3.1.1.8)) is reported as 5.07 µM and the “SI (selectivity towards BuChE)” value (BuChE (E.C. 3.1.1.8)) is reported as “greater than 19.72”.

In the case of `Fc1ccc(CN2CCC(c3nc(-c4ccccc4)no3)CC2)cc1` [6e, 5-(1-(4-fluorobenzyl)piperidin-4-yl)-3-phenyl-1,2,4-oxadiazole], the IC50 [1] is reported as > 100 µM and the IC50 (BuChE (E.C. 3.1.1.8)) is reported as > 100 µM.

For `Cc1ccc(-c2noc(C3CCN(Cc4ccccc4)CC3)n2)cc1` [6b, 5-(1-benzylpiperidin-4-yl)-3-(p-tolyl)-1,2,4-oxadiazole], the IC50 [1] was > 100 µM, the IC50 (BuChE (E.C. 3.1.1.8)) was 9.81 µM and the “SI (selectivity towards BuChE)” value (BuChE (E.C. 3.1.1.8)) was > 10.19.

For `CCCCCCCNC(=O)Oc1cccc(-c2coc3c4c(ccc3c2=O)OC(C)(C)C=C4)c1F` [compound 1], the IC50 (AChE) is given as 297 µM and the IC50 (BuChE; [2]) is given as 0.222 µM.

In the case of `Fc1ccc(-c2noc(C3CCN(Cc4ccccc4Cl)CC3)n2)cc1` [6p, 5-(1-(2-chlorobenzyl)piperidin-4-yl)-3-(4-fluorophenyl)-1,2,4-oxadiazole], the IC50 [1] is reported as > 100 µM and the IC50 (BuChE (E.C. 3.1.1.8)) is reported as > 100 µM.

In the case of `Cc1ccc(CN2CCC(c3nc(-c4ccccc4)no3)CC2)cc1` [6q, 5-(1-(4-methylbenzyl)piperidin-4-yl)-3-phenyl-1,2,4-oxadiazole], the IC50 [1] is reported as > 100 µM and the IC50 (BuChE (E.C. 3.1.1.8)) is reported as > 100 µM.

With `Clc1ccc(-c2noc(C3CCN(Cc4ccccc4Cl)CC3)n2)cc1` [6o, 5-(1-(2-chlorobenzyl)piperidin-4-yl)-3-(4-chlorophenyl)-1,2,4-oxadiazole] the IC50 [1] was > 100 µM, the IC50 (BuChE (E.C. 3.1.1.8)) was 81.2 ± 0.98 µM and the “SI (selectivity towards BuChE)” value (BuChE (E.C. 3.1.1.8)) was > 1.23.

For `Cc1ccc(CN2CCC(c3nc(-c4ccc(C)cc4)no3)CC2)cc1` [6r, 5-(1-(4-methylbenzyl)piperidin-4-yl)-3-(p-tolyl)-1,2,4-oxadiazole], the IC50 [1] was > 100 µM, the IC50 (BuChE (E.C. 3.1.1.8)) was 62.8 ± 0.65 µM and the “SI (selectivity towards BuChE)” value (BuChE (E.C. 3.1.1.8)) was > 1.59.

With `Cc1ccc(CN2CCC(c3nc(-c4ccc(Cl)cc4)no3)CC2)cc1` [6s, 3-(4-chlorophenyl)-5-(1-(4-methylbenzyl)piperidin-4-yl)-1,2,4-oxadiazole] the IC50 [1] was > 100 µM and the IC50 (BuChE (E.C. 3.1.1.8)) was > 100 µM.

In the case of `COc1cc(C2C3=C(CCCC3=O)NC3=C2C(=O)CCC3)ccc1OCc1ccc(F)cc1` [compound 4], the IC50 (AChE) is given as 125 µM and the IC50 (BuChE; [2]) is given as 0.098 µM.

In the case of `Cc1ccc(-c2noc(C3CCN(Cc4ccc(F)cc4)CC3)n2)cc1` [6f, 5-(1-(4-fluorobenzyl)piperidin-4-yl)-3-(p-tolyl)-1,2,4-oxadiazole], the IC50 [1] is reported as > 100 µM, the IC50 (BuChE (E.C. 3.1.1.8)) is reported as 50.7 ± 0.06 µM and the “SI (selectivity towards BuChE)” value (BuChE (E.C. 3.1.1.8)) is reported as > 1.97.

With `c1ccc(CN2CCC(c3nc(-c4ccccc4)no3)CC2)cc1` [6a, 5-(1-benzylpiperidin-4-yl)-3-phenyl-1,2,4-oxadiazole] the IC50 [1] was 35.5 µM, the IC50 (BuChE (E.C. 3.1.1.8)) was 14.2 µM and the “SI (selectivity towards BuChE)” value (BuChE (E.C. 3.1.1.8)) was 2.49.

With `Cc1ccc(CN2CCC(c3nc(-c4ccc(F)cc4)no3)CC2)cc1` [6t, 3-(4-fluorophenyl)-5-(1-(4-methylbenzyl)piperidin-4-yl)-1,2,4-oxadiazole] the IC50 [1] was > 100 µM and the IC50 (BuChE (E.C. 3.1.1.8)) was > 100 µM.

In the case of `O=C(Nc1c(Cl)cccc1Cl)c1ccc(Br)cc1` [compound 2], the “AChE IC50” value (AChE) is listed as “inactive” and the IC50 (BuChE; Figure 2, known inhibitor) is listed as 0.8 µM.

With `Fc1ccc(-c2noc(C3CCN(Cc4ccccc4)CC3)n2)cc1` [6d, 5-(1-benzylpiperidin-4-yl)-3-(4-fluorophenyl)-1,2,4-oxadiazole] the IC50 [1] was 21.16 ± 0.13 µM, the IC50 (BuChE (E.C. 3.1.1.8)) was 24.8 ± 0.97 µM and the “SI (selectivity towards BuChE)” value (BuChE (E.C. 3.1.1.8)) was 0.85.

With `Clc1ccc(CN2CCC(c3nc(-c4ccccc4)no3)CC2)cc1` [6i, 5-(1-(4-chlorobenzyl)piperidin-4-yl)-3-phenyl-1,2,4-oxadiazole] the IC50 [1] was > 100 µM and the IC50 (BuChE (E.C. 3.1.1.8)) was > 100 µM.

In the case of `Fc1ccc(CN2CCC(c3nc(-c4ccc(Cl)cc4)no3)CC2)cc1` [6g, 3-(4-chlorophenyl)-5-(1-(4-fluorobenzyl)piperidin-4-yl)-1,2,4-oxadiazole], the IC50 [1] is reported as > 100 µM and the IC50 (BuChE (E.C. 3.1.1.8)) is reported as > 100 µM.

With `Clc1ccc(CN2CCC(c3nc(-c4ccc(Cl)cc4)no3)CC2)cc1` [6k, 5-(1-(4-chlorobenzyl)piperidin-4-yl)-3-(4-chlorophenyl)-1,2,4-oxadiazole] the IC50 [1] was > 100 µM and the IC50 (BuChE (E.C. 3.1.1.8)) was > 100 µM.

For `CC(=O)N[C@@H](Cn1cc(-c2ccccc2)nn1)C(=O)NCC1CCN(Cc2ccccc2)CC1` [compound 3], the IC50 (AChE) is given as > 10 µM and the IC50 (BuChE; [2]) is given as 0.00017 µM.

With `Clc1ccc(-c2noc(C3CCN(Cc4ccccc4)CC3)n2)cc1` [6c, 5-(1-benzylpiperidin-4-yl)-3-(4-chlorophenyl)-1,2,4-oxadiazole] the IC50 [1] was > 100 µM and the IC50 (BuChE (E.C. 3.1.1.8)) was > 100 µM.

With `Cc1ccc(-c2noc(C3CCN(Cc4ccc(Cl)cc4)CC3)n2)cc1` [6j, 5-(1-(4-chlorobenzyl)piperidin-4-yl)-3-(p-tolyl)-1,2,4-oxadiazole] the IC50 [1] was > 100 µM, the IC50 (BuChE (E.C. 3.1.1.8)) was 50.3 ± 0.77 µM and the “SI (selectivity towards BuChE)” value (BuChE (E.C. 3.1.1.8)) was > 1.98.

With `Fc1ccc(CN2CCC(c3nc(-c4ccc(F)cc4)no3)CC2)cc1` [6h, 5-(1-(4-fluorobenzyl)piperidin-4-yl)-3-(4-fluorophenyl)-1,2,4-oxadiazole] the IC50 [1] was > 100 µM and the IC50 (BuChE (E.C. 3.1.1.8)) was > 100 µM.

In the case of `Fc1ccc(-c2noc(C3CCN(Cc4ccc(Cl)cc4)CC3)n2)cc1` [6l, 5-(1-(4-chlorobenzyl)piperidin-4-yl)-3-(4-fluorophenyl)-1,2,4-oxadiazole], the IC50 [1] is reported as > 100 µM and the IC50 (BuChE (E.C. 3.1.1.8)) is reported as > 100 µM.

With `Clc1ccccc1CN1CCC(c2nc(-c3ccccc3)no2)CC1` [6m, 5-(1-(2-chlorobenzyl)piperidin-4-yl)-3-phenyl-1,2,4-oxadiazole] the IC50 [1] was > 100 µM and the IC50 (BuChE (E.C. 3.1.1.8)) was > 100 µM.

— article PMC8192883, “Novel 1,2,4-oxadiazole derivatives as selective butyrylcholinesterase inhibitors: Design, synthesis and biological evaluation” (EXCLI Journal, 2021)
